As a reminder, the IC50 is the point on the concentration scale where inhibition reaches its midpoint. Low readings indicate higher potency, high ones lower potency.

The test system of one assay is MOLM-13 cell line. Briefly: MOLM-13 cell proliferation assay (alamarBlue). The assay is classed as cell-based. The note with it: Homo sapiens, inhibition of proliferation of MOLM-13 cells (acute myeloid leukaemia), 96 hours incubation. In short, it runs like this: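 MOLM-13 (human AML) cells were treated with compound dilutions for 96 h at 37 °C after overnight plating, and viability was read by alamarBlue fluorescence (ex 530/em 590 nm). Pre-treatment readings were subtracted from end-point readings, and IC50 was calculated relative to buffer-only controls.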

Assay [1] addresses T1, BRD4 bromo domain 2 [BRD4(2)] (Homo sapiens, UniProt O60885).
T1 construct: N-terminally His6-tagged BRD4(2) (amino acids 357-445); made in house; host or cells: E. coli
Briefly: BRD4(2)/acetylated peptide H4 binding assay (TR-FRET). Particulars: inhibition of interaction between His6-tagged BRD4(2) (amino acids 357-445) and acetylated histone H4 peptide. The method, boiled down: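 TR-FRET displacement of biotinylated tetra-acetylated H4 peptide from His6-BRD4(2) (aa 357-445, E. coli-expressed), 100 nM final, in HEPES pH 7.5 buffer; 11 compound concentrations 0.1 nM-20 μM, 10 min preincubation, then 1 h 22 °C plus ≥3 h 4 °C. 665/620 ratio read; IC50 by 4-parameter fit.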
(In general: TR-FRET usually uses a lanthanide donor and a delayed reading to cut background.)

For assay [2], the target named is T2, BRD4 bromo domain 1 [BRD4(1)] (Homo sapiens, UniProt O60885).
T2 construct: N-terminally His6-tagged BRD4(1) (amino acids 67-152); made in house; host or cells: E. coli
The assay can be described thus: BRD4(1)/acetylated peptide H4 binding assay (TR-FRET). The note with it: inhibition of interaction between His6-tagged BRD4(1) (amino acids 67-152) and acetylated histone H4 peptide. The method, boiled down: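 TR-FRET measured displacement of a biotinylated tetra-acetylated H4 peptide from His6-BRD4(1) (aa 67-152, E. coli-expressed, typically 10 nM) in HEPES pH 7.5 buffer. Compounds were tested at 11 concentrations (0.1 nM–20 μM), with 10 min preincubation, then 1 h at 22 °C and ≥3 h at 4 °C. The 665/620 nm ratio gave IC50 by 4-parameter fit.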

Regarding `COc1cc(C(=O)NCCc2cccnc2)ccc1Nc1ccc2c(n1)N(C1CCOCC1)[C@H](C)C(=O)N2C` [Example 61, 4-{[(3R)-1,3-Dimethyl-2-oxo-4-(tetrahydro-2H-pyran-4-yl)-1,2,3,4-tetrahydropyrido[2,3-b]pyrazin-6-yl]amino}-3-methoxy-N-[2-(pyridin-3-yl)ethyl]benzamide], the IC50 was 407 nM in the assay on MOLM-13 cell line, 110 nM in assay [1] and 172 nM in assay [2].

Take `COc1cc(C(=O)NC2CCC(N3CCC(F)(F)CC3)CC2)ccc1Nc1ccc2c(n1)N(C1CCOCC1)[C@H](C)C(=O)N2C` (stereo partly drawn) [Example 62, N-[4-(4,4-Difluoropiperidin-1-yl)cyclohexyl]-4-{[(3R)-1,3-dimethyl-2-oxo-4-(tetrahydro-2H-pyran-4-yl)-1,2,3,4-tetrahydropyrido[2,3-b]pyrazin-6-yl]amino}-3-methoxybenzamide]: the IC50 in the assay with MOLM-13 cell line came out at 444 nM; in assay [1], 146 nM; in assay [2], 187 nM.

Regarding `COc1cc(C(=O)NCCN2CCN(C)CC2)ccc1Nc1ccc2c(n1)N(C1CCOCC1)[C@H](C)C(=O)N2C` [Example 64, 4-{[(3R)-1,3-Dimethyl-2-oxo-4-(tetrahydro-2H-pyran-4-yl)-1,2,3,4-tetrahydropyrido[2,3-b]pyrazin-6-yl]amino}-3-methoxy-N-[2-(4-methylpiperazin-1-yl)ethyl]benzamide], the concentration for half-maximal inhibition (IC50) in the assay with MOLM-13 cell line is 310 nM; in assay [1], 81 nM; in assay [2], 179 nM.

As to `C[C@@H]1C(=O)N(C)c2ccc(Nc3ccc(C(=O)NCCN4CCN(C)CC4)cc3)nc2N1C1CCCCC1` [Example 66, 4-{[(3R)-4-Cyclohexyl-1,3-dimethyl-2-oxo-1,2,3,4-tetrahydropyrido[2,3-b]pyrazin-6-yl]amino}-N-[2-(4-methylpiperazin-1-yl)ethyl]benzamide], the half-inhibitory concentration (IC50) in the assay with MOLM-13 cell line was found to be 270 nM; in assay [1] it was 154 nM; in assay [2] it was 140 nM.

Consider `COc1cc(C(=O)NCCN2CCN(C)CC2)ccc1Nc1ccc2c(n1)N(C1CCCCC1)[C@H](C)C(=O)N2C` [Example 67, 4-{[(3R)-4-Cyclohexyl-1,3-dimethyl-2-oxo-1,2,3,4-tetrahydropyrido[2,3-b]pyrazin-6-yl]amino}-3-methoxy-N-[2-(4-methylpiperazin-1-yl)ethyl]benzamide], for which the IC50 is 265 nM in the assay on MOLM-13 cell line, 110 nM in assay [1] and 178 nM in assay [2].

On to `C[C@@H]1C(=O)N(C)c2ccc(Nc3ccc(C(=O)N[C@H]4CC[C@H](N5CCN(CC6CC6)CC5)CC4)cc3)nc2N1C1CCCCC1` [Example 68, 4-{[(3R)-4-Cyclohexyl-1,3-dimethyl-2-oxo-1,2,3,4-tetrahydropyrido[2,3-b]pyrazin-6-yl]amino}-N-{trans-4-[4-(cyclopropylmethyl)piperazin-1-yl]cyclohexyl}benzamide], for which the figures for the IC50 (in the assay with MOLM-13 cell line; in assay [1]; in assay [2]) were 548 nM, 310 nM and 263 nM, respectively.

`C[C@@H]1C(=O)N(C)c2ccc(Nc3ccc(C(=O)N4CC5(COC5)C4)cc3)nc2N1C1CCCCC1` [Example 69, (3R)-4-Cyclohexyl-1,3-dimethyl-6-{[4-(2-oxa-6-azaspiro[3.3]hept-6-ylcarbonyl)phenyl]amino}-3,4-dihydropyrido[2,3-b]pyrazin-2(1H)-one]: the half-inhibitory concentration (IC50) in the assay on MOLM-13 cell line was determined as 358 nM; in assay [1], 89 nM; in assay [2], 164 nM.

Consider `COc1cc(C(=O)N[C@H]2CC[C@H](N3CCN(CC4CC4)CC3)CC2)ccc1Nc1ccc2c(n1)N(C1CCCCC1)[C@H](C)C(=O)N2C` [Example 70, 4-{[(3R)-4-Cyclohexyl-1,3-dimethyl-2-oxo-1,2,3,4-tetrahydropyrido[2,3-b]pyrazin-6-yl]amino}-N-{trans-4-[4-(cyclopropylmethyl)piperazin-1-yl]cyclohexyl}-3-methoxybenzamide], for which the half-maximal inhibitory concentration (IC50) turned out to be 233 nM in the assay with MOLM-13 cell line, 120 nM in assay [1] and 239 nM in assay [2].

Regarding `COc1cc(C(=O)NC2CN(C)C2)ccc1Nc1ccc2c(n1)N(C1CCCCC1)[C@H](C)C(=O)N2C` [Example 72, 4-{[(3R)-4-Cyclohexyl-1,3-dimethyl-2-oxo-1,2,3,4-tetrahydropyrido[2,3-b]pyrazin-6-yl]amino}-3-methoxy-N-(1-methylazetidin-3-yl)benzamide], the concentration for half-maximal inhibition (IC50) is 254 nM in the assay with MOLM-13 cell line, 118 nM in assay [1] and 131 nM in assay [2].

With `C[C@@H]1C(=O)N(C)c2ccc(Nc3ccc(C(=O)N4CC5(CCS5(=O)=O)C4)cc3)nc2N1Cc1ccccc1` [Example 75, (3R)-4-Benzyl-6-({4-[(1,1-dioxido-1-thia-6-azaspiro[3.3]hept-6-yl)carbonyl]phenyl}amino)-1,3-dimethyl-3,4-dihydropyrido[2,3-b]pyrazin-2(1H)-one], the results for the half-inhibitory concentration (IC50) (in the assay with MOLM-13 cell line; in assay [1]; in assay [2]) were 350 nM, 82 nM and 149 nM, respectively.

Consider `COc1cc(C(=O)NC2CCN(C(C)=O)CC2)ccc1Nc1ccc2c(n1)N(Cc1ccccc1)[C@H](C)C(=O)N2C` [Example 77, N-(1-Acetylpiperidin-4-yl)-4-{[(3R)-4-benzyl-1,3-dimethyl-2-oxo-1,2,3,4-tetrahydropyrido[2,3-b]pyrazin-6-yl]amino}-3-methoxybenzamide], for which the concentration for half-maximal inhibition (IC50) in the assay with MOLM-13 cell line was found to be 242 nM; in assay [1], 103 nM; in assay [2], 55 nM.

Take `CC(=O)N1CCC(NC(=O)c2ccc(Nc3ccc4c(n3)N(Cc3ccccc3)[C@H](C)C(=O)N4C)cc2)CC1` [Example 78, N-(1-Acetylpiperidin-4-yl)-4-{[(3R)-4-benzyl-1,3-dimethyl-2-oxo-1,2,3,4-tetrahydropyrido[2,3-b]pyrazin-6-yl]amino}benzamide]: the concentration for half-maximal inhibition (IC50) amounted to 243 nM in the assay on MOLM-13 cell line, 111 nM in assay [1] and 153 nM in assay [2].

As for `COc1cc(C(=O)NC2CCC(O)CC2)ccc1Nc1ccc2c(n1)N(Cc1ccccc1)[C@H](C)C(=O)N2C` (stereo partly drawn) [Example 79, 4-{[(3R)-4-Benzyl-1,3-dimethyl-2-oxo-1,2,3,4-tetrahydropyrido[2,3-b]pyrazin-6-yl]amino}-N-(4-hydroxycyclohexyl)-3-methoxybenzamide], the IC50 in the assay with MOLM-13 cell line amounted to 282 nM; in assay [1], 51 nM; in assay [2], 120 nM.

With `COc1cc(C(=O)N2CCN(C(C)C)CC2)ccc1Nc1ccc2c(n1)N(Cc1ccccc1)[C@H](C)C(=O)N2C` [Example 80, (3R)-4-Benzyl-6-[(2-methoxy-4-{[4-(propan-2-yl)piperazin-1-yl]carbonyl}phenyl)amino]-1,3-dimethyl-3,4-dihydro pyrido[2,3-b]pyrazin-2(1H)-one], the IC50 came out at 170 nM in the assay on MOLM-13 cell line, 138 nM in assay [1] and 137 nM in assay [2].

In the case of `C[C@@H]1C(=O)N(C)c2ccc(Nc3ccc(C(=O)NCCN4CCN(C)CC4)cc3)nc2N1Cc1ccccc1` [Example 81, 4-{[(3R)-4-Benzyl-1,3-dimethyl-2-oxo-1,2,3,4-tetrahydropyrido[2,3-b]pyrazin-6-yl]amino}-N-[2-(4-methylpiperazin-1-yl)ethyl]benzamide], the half-maximal inhibitory concentration (IC50) in the assay on MOLM-13 cell line is 96 nM; in assay [1], 23 nM; in assay [2], 89 nM.

On to `COc1cc(C(=O)NCCN2CCN(C)CC2)ccc1Nc1ccc2c(n1)N(Cc1ccccc1)[C@H](C)C(=O)N2C` [Example 82, 4-{[(3R)-4-Benzyl-1,3-dimethyl-2-oxo-1,2,3,4-tetrahydropyrido[2,3-b]pyrazin-6-yl]amino}-3-methoxy-N-[2-(4-methylpiperazin-1-yl)ethyl]benzamide], for which the 50% inhibitory concentration (IC50) was determined as 131 nM with MOLM-13 cell line, 48 nM in assay [1] and 40 nM in assay [2].

Consider `COc1cc(C(=O)N2CC3(COC3)C2)ccc1Nc1ccc2c(n1)N(Cc1ccccc1)[C@H](C)C(=O)N2C` [Example 83, (3R)-4-Benzyl-6-{[2-methoxy-4-(2-oxa-6-azaspiro[3.3]hept-6-ylcarbonyl)phenyl]amino}-1,3-dimethyl-3,4-dihydropyrido[2,3-b]pyrazin-2(1H)-one], for which the IC50 with MOLM-13 cell line was 122 nM; in assay [1] it was 61 nM; in assay [2] it was 133 nM.

As to `COc1cc(C(=O)NCCN2CCN(C)CC2)ccc1Nc1ccc2c(n1)N(C1CCCCCC1)[C@H](C)C(=O)N2C` [Example 91, 4-{[(3R)-4-Cycloheptyl-1,3-dimethyl-2-oxo-1,2,3,4-tetrahydropyrido[2,3-b]pyrazin-6-yl]amino}-3-methoxy-N-[2-(4-methylpiperazin-1-yl)ethyl]benzamide], the half-maximal inhibitory concentration (IC50) in the assay on MOLM-13 cell line came out at 353 nM; in assay [1], 135 nM; in assay [2], 154 nM.

Turning to `CC(C)N1c2nc(Nc3ccc(S(=O)(=O)N4CCN(C)CC4)cc3)ccc2N(C)C(=O)[C@H]1C` [Example 99, (3R)-1,3-Dimethyl-6-({4-[(4-methylpiperazin-1-yl)sulphonyl]phenyl}amino)-4-(propan-2-yl)-3,4-dihydropyrido[2,3-b]pyrazin-2(1H)-one], the IC50 with MOLM-13 cell line was determined as 316 nM; in assay [1], 104 nM; in assay [2], 145 nM.
